Laboratory results reported in patent US7858635B2 (priority 2005, dated 2010).
Read-outs that look alike come from different tables or passages of the source.

Columns and labels:
M1 muscarinic receptor = biological target: T1, M1 muscarinic receptor (Homo sapiens, UniProt P11229); test: Functional mobilization of intracellular calcium (FLIPR, Fluo-3), M1-CHO cells; type: cell-based; details: for Emax: read-out: M1 Efficacy; for M1 Activity: M1-CHO cells, calcium mobilization
T1 construct: expressed in transfected cells; host or cells: CHO cells (M1-CHO, under zeocin and G418 selection)
T1 sequence (P11229 1-460): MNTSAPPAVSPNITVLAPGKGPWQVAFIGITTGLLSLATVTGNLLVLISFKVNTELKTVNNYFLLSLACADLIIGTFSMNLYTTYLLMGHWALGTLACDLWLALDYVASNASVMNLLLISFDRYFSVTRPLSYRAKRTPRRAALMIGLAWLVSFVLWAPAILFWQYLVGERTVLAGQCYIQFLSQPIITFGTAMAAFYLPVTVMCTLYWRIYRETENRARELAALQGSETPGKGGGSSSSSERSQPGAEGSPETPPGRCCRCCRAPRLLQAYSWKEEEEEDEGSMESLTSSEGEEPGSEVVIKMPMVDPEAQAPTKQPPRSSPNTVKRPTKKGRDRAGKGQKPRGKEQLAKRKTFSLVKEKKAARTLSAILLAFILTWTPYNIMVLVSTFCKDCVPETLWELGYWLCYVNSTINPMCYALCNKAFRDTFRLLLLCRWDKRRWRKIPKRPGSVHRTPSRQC
Procedure, shortened: (§1)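 Intracellular calcium was tracked by fluorescence (488/540 nm) over 60 sec after compound addition to dye-loaded CHO cells expressing the receptor. Inhibitory activity used a 15 min pre-incubation before carbachol at the subtype EC80.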

M4 muscarinic receptor = biological target: T2, M4 muscarinic receptor (Homo sapiens, UniProt P08173); test: Functional mobilization of intracellular calcium (FLIPR, Fluo-3), M4-CHO cells; type: cell-based; details: for Emax: read-out: M4 Efficacy; for M4 Activity: M4-CHO cells, calcium mobilization
T2 construct: expressed in transfected cells; host or cells: CHO cells (M4-CHO, under puromycin, zeocin and blasticidin selection)
T2 sequence (P08173 1-479): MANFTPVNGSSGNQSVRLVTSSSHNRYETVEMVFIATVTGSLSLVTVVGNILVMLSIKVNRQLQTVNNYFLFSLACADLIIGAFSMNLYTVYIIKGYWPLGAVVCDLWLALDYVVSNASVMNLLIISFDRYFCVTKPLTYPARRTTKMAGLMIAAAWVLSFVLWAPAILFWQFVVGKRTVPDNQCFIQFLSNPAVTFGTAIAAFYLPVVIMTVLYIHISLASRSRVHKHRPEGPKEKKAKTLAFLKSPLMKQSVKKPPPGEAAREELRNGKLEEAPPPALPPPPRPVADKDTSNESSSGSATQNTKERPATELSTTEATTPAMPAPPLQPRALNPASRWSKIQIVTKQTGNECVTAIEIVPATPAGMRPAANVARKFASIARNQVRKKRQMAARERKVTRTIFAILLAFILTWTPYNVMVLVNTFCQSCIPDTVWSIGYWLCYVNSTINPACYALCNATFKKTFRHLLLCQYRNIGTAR
Procedure, shortened: as §1

[1] = compound nos. 1-454, 100% efficacy is the maximum response obtained with the Carbachol control

SMILES | Emax (M1 muscarinic receptor; [1]) [%] | M1 Activity (M1 muscarinic receptor; compound nos. 1-454) | Emax (M4 muscarinic receptor; [1]) [%] | M4 Activity (M4 muscarinic receptor; compound nos. 1-454) | M1 Efficacy (M1 muscarinic receptor; [1]) | M4 Efficacy (M4 muscarinic receptor; [1]) | Emax (M1 muscarinic receptor) [%] | Emax (M4 muscarinic receptor) [%]
Clc1ccc2c(c1)C1(CCO2)CCN(CC2CCOCC2)CC1 [compound 288] | < 65 | + (activity was measured to be greater than or equal to 3.0 μM) | < 55 | + (activity was measured to be greater than or equal to 4.0 μM) | – | – | – | –
CC(C)NC(=O)N1C2CCC1CC(N1CCC3(CC1)COc1ccc(F)cc13)C2 (stereo not drawn) [compound 289] | < 65 | +++ (activity was measured to be less than or equal to 0.7 μM) | < 55 | + (activity was measured to be greater than or equal to 4.0 μM) | – | – | – | –
CCOC(=O)N1CCC(N2CCC3(CC2)CN(C(=O)N2CCOCC2)c2ccc(F)cc23)CC1 [compound 290] | < 65 | +++ (activity was measured to be less than or equal to 0.7 μM) | < 55 | + (activity was measured to be greater than or equal to 4.0 μM) | – | – | – | –
CC(=O)NC1CC2(CCN(C3CC4CCC3C4)CC2)c2ccccc21 (stereo not drawn) [compound 291] | 65 to 85 | ++ (activity was measured to be between 0.7 μM and 3.0 μM) | 55 to 70 | + (activity was measured to be greater than or equal to 4.0 μM) | – | – | – | –
Cc1ccc2c(c1)C1(CCN(C3CC4CCC3C4)CC1)CN2C(=O)c1ccno1 (stereo not drawn) [compound 292] | 65 to 85 | ++ (activity was measured to be between 0.7 μM and 3.0 μM) | 55 to 70 | + (activity was measured to be greater than or equal to 4.0 μM) | – | – | – | –
COCCOC(=O)N1CCC(N2CCC3(CC2)CN(C(C)=O)c2ccc(C)cc23)CC1 [compound 293] | > 85 | ++ (activity was measured to be between 0.7 μM and 3.0 μM) | > 70 | +++ (activity was measured to be less than or equal to 0.1 μM) | – | – | – | –
CCCOC(=O)N1C2CCC1CC(N1CCC3(CC1)CN(S(C)(=O)=O)c1ccc(F)cc13)C2 (stereo not drawn) [compound 294] | > 85 | ++ (activity was measured to be between 0.7 μM and 3.0 μM) | 55 to 70 | ++ (activity was measured to be between 0.1 μM and 4.0 μM) | – | – | – | –
CCOC(=O)N1CCC(N2CCC3(CC2)CN(C(C)=O)c2ccc(-c4ccc(C(F)(F)F)cc4)cc23)CC1 [compound 295] | 65 to 85 | +++ (activity was measured to be less than or equal to 0.7 μM) | 55 to 70 | +++ (activity was measured to be less than or equal to 0.1 μM) | – | – | – | –
CCOC(=O)N1C2CCC1CC(N1CCC3(CC1)CN(C(=O)NC(C)C)c1ccc(F)cc13)C2 (stereo not drawn) [compound 296] | 65 to 85 | + (activity was measured to be greater than or equal to 3.0 μM) | 55 to 70 | + (activity was measured to be greater than or equal to 4.0 μM) | – | – | – | –
CCCOC(=O)N1C2CCC1CC(N1CCC3(CC1)CN(C(=O)O[C@@H]1CCOC1)c1ccc(F)cc13)C2 (stereo partly drawn) [compound 297] | – | + (activity was measured to be greater than or equal to 3.0 μM) | – | + (activity was measured to be greater than or equal to 4.0 μM) | ++ (efficacy was calculated to be between 85% and 65%) | ++ (efficacy was calculated to be between 70% and 55%) | – | –
CCOC(=O)N1C2CCC1CC(N1CCC3(CC1)CN(C(=O)Oc1ccc(F)cc1)c1ccc(F)cc13)C2 (stereo not drawn) [compound 298] | – | + (activity was measured to be greater than or equal to 3.0 μM) | – | + (activity was measured to be greater than or equal to 4.0 μM) | – | – | < 65 | 55 to 70
Fc1ccc2c(c1)C1(CCN(C3CCOCC3)CC1)CN2 [compound 299] | 65 to 85 | + (activity was measured to be greater than or equal to 3.0 μM) | 55 to 70 | + (activity was measured to be greater than or equal to 4.0 μM) | – | – | – | –
